Data from paper PMC12442245, “Activity Analysis of the P2X Receptor Antagonist PPADS against Signal Transducer and Activator of Transcription Proteins” (Chembiochem, 2025).
Read-outs that look alike come from different tables or passages of the source.

What was measured:
Assay type in all cases: binding
STAT3 = STAT3 (Homo sapiens, UniProt P40763); test: HTRF assay, STAT3; design: the endogenous full‐length proteins (between 748 and 793 amino acids for STAT3/4/5a/5b); endogenous in cells; host or cells: NK-92 cells (DSMZ), whole-cell lysate; settings: STAT3 110 nM, without reducing agent, 1 h
Method: In addition, an HTRF assay was established for STAT3, one of the STAT proteins targeted to a lesser extent in FP assays, as a specificity control (Figure 1B,C). […] A Tb^3+‐cryptate fused to an anti‐6x‐His antibody was chosen as the long‐lived fluorescent donor, while the carboxyfluorescein linked to the respective STAT‐binding peptides served as the acceptor (Figure 2A). Emission was measured with a time delay of 60 μs after excitation, allowing any initial compound fluorescence to decay beforehand.
Homogenous time-resolved fluorescence (HTRF) assays for STAT3, STAT4, STAT5a and STAT5b were carried out using Cisbio Monoclonal Antibody Anti-6His-Tb Gold as the fluorescence donor (Perkin Elmer) and the corresponding CF-labelled binding peptide as the acceptor. Protein at 110 nM (STAT3), 30 nM (STAT4), 110 nM (STAT 5a) or 80 nM (STAT5b) was combined with terbium-labelled antibody at the recommended concentration, 150 nM CF-labelled peptide and compound as indicated, and incubated at room temperature for 1 h. […] Fluorescence /luminescence was measured in Proxiplate 384-well plates (Perkin Elmer), using a 340 nm excitation filter with 520 nm and 620 nm emission filters, with 60 µs time delay. The average reading from 3 wells was obtained. After subtraction of the blank (buffer only) from each reading, the ratio of the 520 nm / 620 nm readings was calculated. […]

STAT6 = biological target: T1, STAT6 (Homo sapiens, UniProt P42226); test: Competitive fluorescence polarization (FP) assay, STAT6; settings: no reducing agent, 1 h
T1 sequence (P42226 1-847): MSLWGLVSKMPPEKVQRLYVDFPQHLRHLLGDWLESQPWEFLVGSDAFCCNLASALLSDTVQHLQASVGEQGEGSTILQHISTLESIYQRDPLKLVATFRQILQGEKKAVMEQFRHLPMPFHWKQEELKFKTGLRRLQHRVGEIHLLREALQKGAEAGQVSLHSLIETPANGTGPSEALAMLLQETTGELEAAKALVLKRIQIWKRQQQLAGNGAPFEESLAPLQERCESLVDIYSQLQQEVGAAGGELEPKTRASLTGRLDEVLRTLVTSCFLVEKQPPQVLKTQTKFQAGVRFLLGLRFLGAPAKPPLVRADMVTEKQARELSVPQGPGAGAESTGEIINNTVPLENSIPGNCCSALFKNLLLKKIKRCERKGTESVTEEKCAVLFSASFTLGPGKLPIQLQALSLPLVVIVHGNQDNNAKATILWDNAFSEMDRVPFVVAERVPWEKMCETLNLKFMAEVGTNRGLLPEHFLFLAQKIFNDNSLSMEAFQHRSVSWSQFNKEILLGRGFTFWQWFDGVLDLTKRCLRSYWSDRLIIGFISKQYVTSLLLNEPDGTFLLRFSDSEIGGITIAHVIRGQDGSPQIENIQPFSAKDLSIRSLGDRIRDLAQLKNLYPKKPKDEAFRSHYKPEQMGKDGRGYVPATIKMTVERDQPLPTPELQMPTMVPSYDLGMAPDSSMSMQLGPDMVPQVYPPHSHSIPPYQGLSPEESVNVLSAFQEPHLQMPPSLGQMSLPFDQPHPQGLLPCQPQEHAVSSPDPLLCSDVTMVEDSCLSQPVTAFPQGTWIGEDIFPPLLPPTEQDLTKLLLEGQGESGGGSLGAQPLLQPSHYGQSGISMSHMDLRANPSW
Method: (§1) Screening of chemical libraries […]
(§2) PPADS was purchased […]
(§3) from Sigma-Aldrich, and iso-PPADS from Bio-Techne.
(§4) Fluorescence polarization assays
(§5) Competitive fluorescence polarization (FP) assays for STAT1,[2] STAT3,[3] STAT4,[4] STAT5a,[5] STAT5b[6] and STAT6[1] were performed as previously described. Briefly, peptide binding to proteins was analyzed using the following carboxyfluorescein (CF) -labelled pepti des at a concentration of 10 nM: STAT1: 5-CF-GpYDKPHVL-OH, STAT3: 5-CF-GpYLPQTV -NH2, STAT4: 5-CF-GpYLPQNID-OH, STAT5a and STAT5b: 5-CF-GpYLVLDKW-OH, STAT6: 5- […]
CFGp[…]-OH. Proteins were used at a final concentration representing the approximate Kd value for binding of the corresponding peptide to the protein, namely 65 nM for STAT1, 65 nM for STAT3, 35 nM for STAT4, 125 nM for STAT5a, 65 nM for STAT5b and 75 nM for STAT6. Assays were carried out in buffer containing 10 mM Tris/HCl, 50 mM NaCl, 1 mM EDTA, 0.1% NP-40 substitute and 2% DMSO, with 1 mM reducing agent where applicable, at pH 8.0. Proteins were incubated with compound for 1 h at room temperature before adding peptide and incubating for a further 1 h. FP was measured using an Infinite F500 plate reader (Tecan) and measurements were converted into percent inhibition according to […]

STAT4 = biological target: T2, STAT4 (Homo sapiens, UniProt Q14765); test: Competitive fluorescence polarization (FP) assay, STAT4
T2 sequence (Q14765 1-748): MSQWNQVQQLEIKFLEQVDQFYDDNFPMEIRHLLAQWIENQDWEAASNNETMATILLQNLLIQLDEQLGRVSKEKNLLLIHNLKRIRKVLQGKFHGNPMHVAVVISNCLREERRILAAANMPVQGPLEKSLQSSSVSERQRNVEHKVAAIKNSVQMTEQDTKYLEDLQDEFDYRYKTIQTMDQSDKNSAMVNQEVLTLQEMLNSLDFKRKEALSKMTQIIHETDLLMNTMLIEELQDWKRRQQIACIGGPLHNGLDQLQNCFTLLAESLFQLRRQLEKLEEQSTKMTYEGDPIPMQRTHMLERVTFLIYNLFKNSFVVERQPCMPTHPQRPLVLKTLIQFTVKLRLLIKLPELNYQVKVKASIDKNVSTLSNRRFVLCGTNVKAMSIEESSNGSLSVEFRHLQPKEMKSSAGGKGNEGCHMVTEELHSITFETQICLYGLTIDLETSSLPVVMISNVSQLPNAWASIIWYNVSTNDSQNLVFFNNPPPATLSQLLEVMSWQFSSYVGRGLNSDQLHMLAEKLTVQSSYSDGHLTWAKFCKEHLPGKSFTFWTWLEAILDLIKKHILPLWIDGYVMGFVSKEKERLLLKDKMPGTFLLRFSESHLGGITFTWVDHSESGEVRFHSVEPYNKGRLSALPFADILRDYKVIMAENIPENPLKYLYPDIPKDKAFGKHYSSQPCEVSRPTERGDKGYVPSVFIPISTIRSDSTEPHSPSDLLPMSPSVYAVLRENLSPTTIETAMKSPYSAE
Method: as §1, §2, §3, §4, §5
CFGp[…]-OH. Proteins were used at a final concentration representing the approximate Kd value for binding of the corresponding peptide to the protein, namely 65 nM for STAT1, 65 nM for STAT3, 35 nM for STAT4, 125 nM for STAT5a, 65 nM for STAT5b and 75 nM for STAT6. Assays were carried out in buffer containing 10 mM Tris/HCl, 50 mM NaCl, 1 mM EDTA, 0.1% NP-40 substitute and 2% DMSO, with 1 mM reducing agent where […]
applicable, at pH 8.0. […]
before adding peptide and incubating for a further 1 h. FP was measured using an Infinite F500 plate reader (Tecan) and measurements were converted into percent inhibition according to […]

[1] = no reducing agent, 1 h, read-out: IC50 STAT4 (FP assay)

STAT3, sequence (P40763 whole entry, species assumed): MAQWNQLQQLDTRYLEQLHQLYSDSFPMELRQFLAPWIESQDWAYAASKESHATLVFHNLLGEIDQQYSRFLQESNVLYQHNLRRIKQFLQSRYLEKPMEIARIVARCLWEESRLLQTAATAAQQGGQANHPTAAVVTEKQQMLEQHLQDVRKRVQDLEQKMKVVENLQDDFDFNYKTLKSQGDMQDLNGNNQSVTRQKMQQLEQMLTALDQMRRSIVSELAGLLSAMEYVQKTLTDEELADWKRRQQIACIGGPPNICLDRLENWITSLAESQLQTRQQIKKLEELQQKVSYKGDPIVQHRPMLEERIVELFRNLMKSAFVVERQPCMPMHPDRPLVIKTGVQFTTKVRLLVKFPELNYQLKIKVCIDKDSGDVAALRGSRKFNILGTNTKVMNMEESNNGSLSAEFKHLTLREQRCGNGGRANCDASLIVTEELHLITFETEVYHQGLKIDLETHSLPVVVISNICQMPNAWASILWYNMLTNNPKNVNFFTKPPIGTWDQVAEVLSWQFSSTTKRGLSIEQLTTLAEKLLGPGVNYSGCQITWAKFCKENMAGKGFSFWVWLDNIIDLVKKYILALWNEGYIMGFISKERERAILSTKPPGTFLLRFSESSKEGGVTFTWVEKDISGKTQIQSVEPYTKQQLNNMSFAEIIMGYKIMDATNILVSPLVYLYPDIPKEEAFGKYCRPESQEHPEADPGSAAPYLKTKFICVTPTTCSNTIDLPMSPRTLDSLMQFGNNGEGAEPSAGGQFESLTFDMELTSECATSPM

SMILES | IC50 (STAT3) | IC50 (STAT6) | IC50 (STAT4; IC50 STAT4 (FP assay), 1 mM DTT, 1 hr) | IC50 (STAT4; IC50 STAT4 (FP assay), 1 mM DTT, 2 hr) | IC50 (STAT4; IC50 STAT4 (FP assay), 1 mM DTT, 3 hr) | IC50 (STAT4; IC50 STAT4 (FP assay), 1 mM DTT, 4 hr) | IC50 (STAT4; IC50 STAT4 (FP assay), 1 mM TCEP, 1 hr) | IC50 (STAT4; IC50 STAT4 (FP assay), 1 mM TCEP, 2 hr) | IC50 (STAT4; IC50 STAT4 (FP assay), 1 mM TCEP, 3 hr) | IC50 (STAT4; IC50 STAT4 (FP assay), 1 mM TCEP, 4 hr) | IC50 (STAT4; [1]) | IC50 (STAT4; no reducing agent, 2 hr, read-out: IC50 STAT4 (FP assay), no reducing agent) | IC50 (STAT4; no reducing agent, 3 hr, read-out: IC50 STAT4 (FP assay), no reducing agent) | IC50 (STAT4; no reducing agent, 4 hr, read-out: IC50 STAT4 (FP assay), no reducing agent)
Cc1nc(/N=N/c2ccc(S(=O)(=O)O)cc2S(=O)(=O)O)c(COP(=O)(O)O)c(C=O)c1O [PPADS, pyridoxalphosphate‐6‐azophenyl‐2',4'‐disulfonic acid] | 29600 ± 4000 nM | 20100 ± 4600 nM | 1700 ± 300 nM | 2500 ± 400 nM | 3700 ± 600 nM | 4900 ± 900 nM | 2400 ± 300 nM | 2400 ± 200 nM | 2500 ± 400 nM | 2800 ± 500 nM | 2200 ± 200 nM | 2400 ± 300 nM | 2600 ± 300 nM | 2400 ± 100 nM
Cc1nc(/N=N/c2cc(S(=O)(=O)O)ccc2S(=O)(=O)O)c(COP(=O)(O)O)c(C=O)c1O [iso‐PPADS] | 31900 ± 4000 nM | 66000 ± 12000 nM | – | – | – | – | – | – | – | – | 1900 ± 200 nM | – | – | –
